Broadly, the inhibition is the share of the control response that was lost under treatment.

This is an account of results in patent US12568972B2, “Pyridazinol compounds and derivatives, preparation methods, herbicidal compositions and applications thereof” (Qingdao Kingagroot Chemical Compound Co., Ltd., priority 2018, dated 2026).

What all share (test): Post-emergence test, weed control effect
Common to all, as to type: in vivo

In assay [1] the test system is Veronica polita. The conditions noted are these: after 3 weeks; for inhibition at 150 g/ha / inhibition at 300 g/ha: Veronica polita, 504 h, fresh weight inhibition, read-out: activity level of harmful plant destruction (growth inhibition rate), Veronica polita. The procedure, abridged:
(§1)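 Score 0-10 (10 = completely dead, 1 = below 20%, 0 = no effect) from fresh-weight growth inhibition, read 3 weeks after a post-emergence spray. Greenhouse pot plants at 2-3 leaves; spray solution acetone/Tween-80/water with 80% vegetable oil methyl ester synergist at 1500 g/ha.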

The subject of assay [2] is Rorippa indica. The conditions noted are these: after 3 weeks; for inhibition at 150 g/ha / inhibition at 300 g/ha: Rorippa indica, 504 h, fresh weight inhibition, read-out: activity level of harmful plant destruction (growth inhibition rate), Rorippa indica. The gist of the method: as §1
In assay [3] the test system is Chenopodiaceae. The conditions noted are these: after 3 weeks; for inhibition at 150 g/ha / inhibition at 300 g/ha: 504 h, fresh weight inhibition, read-out: activity level of harmful plant destruction (growth inhibition rate), Chenopodiaceae. The gist of the method:
as §1

The subject of assay [4] is Setaria viridis. Particulars: 504 h, after 3 weeks, fresh weight inhibition, read-out: activity level of harmful plant destruction (growth inhibition rate), Setaria viridis. The gist of the method:
as §1

Assay [5] has as its system Echinochloa crus-galli. The conditions noted are these: 504 h, after 3 weeks, fresh weight inhibition, read-out: activity level of harmful plant destruction (growth inhibition rate), Echinochloa crus-galli. The procedure, abridged:
as §1

Assay [6] concerns Galium aparine. The conditions noted are these: 504 h, after 3 weeks, fresh weight inhibition, read-out: activity level of harmful plant destruction (growth inhibition rate), Galium aparine. The gist of the method: as §1
In assay [7] the test system is Amaranthus retroflexus. Particulars: after 3 weeks. The gist of the method:
as §1

Consider `CCCCCCCCOC(=O)Oc1cc(C(F)(F)F)nnc1-c1ccc(F)cc1` [Compound 1-39], for which the “weed control effect, Veronica polita (activity level)” value (“weed control effect, Veronica polita” for short) in assay [1] (Dose 3000 g/ha) turned out to be 10. Besides, the inhibition at 150 g/ha in assay [1], in assay [2], in assay [3], in assay [4], in assay [5] and in assay [6] was 100% in each case. Also, the “weed control effect, Rorippa indica (activity level)” value (shortened to “weed control effect, Rorippa indica”) in assay [2] (Dose 3000 g/ha) is 10. Moreover, the “weed control effect, Chenopodiaceae (activity level)” value (shortened to “weed control effect, Chenopodiaceae”) in assay [3] (Dose 3000 g/ha) worked out at 10. Further, the “weed control effect, Amaranthus retroflexus (activity level)” value in assay [7] (Dose 3000 g/ha) is reported as 10.
For `CCCSC(=O)Oc1cc(C(F)(F)F)nnc1-c1ccc(F)cc1` [Compound 1-43], the “weed control effect, Veronica polita” value in assay [1] (Dose 3000 g/ha) is reported as 10. Also, the inhibition at 150 g/ha in assay [1], in assay [2], in assay [3], in assay [4], in assay [5] and in assay [6] was 100% in each case. Besides, in assay [2] (Dose 3000 g/ha), the “weed control effect, Rorippa indica” value was determined as 10. In addition, the “weed control effect, Chenopodiaceae” value in assay [3] (Dose 3000 g/ha) is 10. Moreover, the “weed control effect, Amaranthus retroflexus (activity level)” value in assay [7] (Dose 3000 g/ha) was 10.
Turning to `CCCCCCCCSC(=O)Oc1cc(C(F)(F)F)nnc1-c1ccc(F)c(F)c1` [Compound 1-55], in assay [1] (Dose 3000 g/ha), the “weed control effect, Veronica polita” value is 10. Further, the inhibition at 150 g/ha in assay [1], in assay [2], in assay [3], in assay [4], in assay [5] and in assay [6] was 100% each time. In addition, the “weed control effect, Rorippa indica” value in assay [2] (Dose 3000 g/ha) is on record as 10. In assay [3] (Dose 3000 g/ha), the “weed control effect, Chenopodiaceae” value is given as 10. In addition, in assay [7] (Dose 3000 g/ha), the “weed control effect, Amaranthus retroflexus (activity level)” value is listed as 10.
For `N#Cc1ccc(-c2nnc(C(F)(F)F)cc2OC(=O)c2ccc(Cl)cc2)cc1` [Compound 1-82], in assay [1] (Dose 3000 g/ha), the “weed control effect, Veronica polita” value is given as 10. Besides, the inhibition at 150 g/ha in assay [1] was 80 to 90%; in assay [2] it was 100%; in assay [3] it was 100%; in assay [4], 100%; in assay [5], 70 to 80%; in assay [6], 70 to 80%. The “weed control effect, Rorippa indica” value in assay [2] (Dose 3000 g/ha) is on record as 10. Further, the “weed control effect, Chenopodiaceae” value in assay [3] (Dose 3000 g/ha) was 10. For the same molecule, the “weed control effect, Amaranthus retroflexus (activity level)” value in assay [7] (Dose 3000 g/ha) amounted to 10.
For `N#Cc1ccccc1C(=O)Oc1cc(C(F)(F)F)nnc1-c1ccc(F)c(F)c1` [Compound 1-86], in assay [1] (Dose 3000 g/ha), the “weed control effect, Veronica polita” value stood at 10. In addition, the inhibition at 150 g/ha in assay [1], in assay [2], in assay [3], in assay [4], in assay [5] and in assay [6] was 100% in each case. The “weed control effect, Rorippa indica” value in assay [2] (Dose 3000 g/ha) turned out to be 10. Further, the “weed control effect, Chenopodiaceae” value in assay [3] (Dose 3000 g/ha) is on record as 10. Besides, the “weed control effect, Amaranthus retroflexus (activity level)” value in assay [7] (Dose 3000 g/ha) came to 10.
Turning to `Oc1cc(C(F)(F)F)nnc1-c1ccc(F)cc1` [Compound 32], the inhibition at 300 g/ha in assay [1], in assay [2], in assay [3], in assay [4], in assay [5] and in assay [6] was 100% each time. For the same molecule, the “weed control effect (activity level), Veronica polita” value in assay [1] (dose 1000 g/ha) worked out at 10. Also, the “weed control effect (activity level), Rorippa indica” value in assay [2] (dose 1000 g/ha) was found to be 10. Besides, the “weed control effect (activity level), Chenopodiaceae” value in assay [3] (dose 1000 g/ha) was found to be 10. Further, the “weed control effect (activity level), Amaranthus retroflexus” value in assay [7] (dose 1000 g/ha) is recorded as 10.
With `Oc1cc(C(F)(F)F)nnc1-c1cc(F)cc(F)c1` [Compound 35], the inhibition at 300 g/ha in assay [1] is 100%; in assay [2], 100%; in assay [3] it was 100%; in assay [4], 100%; in assay [5], 100%; in assay [6], 90 to 100%. Moreover, in assay [1] (dose 1000 g/ha), the “weed control effect (activity level), Veronica polita” value amounted to 10. Besides, the “weed control effect (activity level), Rorippa indica” value in assay [2] (dose 1000 g/ha) is given as 10. Moreover, the “weed control effect (activity level), Chenopodiaceae” value in assay [3] (dose 1000 g/ha) was 10. Further, the “weed control effect (activity level), Amaranthus retroflexus” value in assay [7] (dose 1000 g/ha) is reported as 10.
`Oc1cc(C(F)(F)F)nnc1-c1ccc(C(F)(F)F)cc1F` [Compound 51]: the inhibition at 300 g/ha is 90 to 100% in assay [1]; 100% in assay [2]; 100% in assay [3]; 90 to 100% in assay [4]; 60 to 70% in assay [5]; 80 to 90% in assay [6]. Moreover, in assay [1] (dose 1000 g/ha), the “weed control effect (activity level), Veronica polita” value is reported as 10. Besides, in assay [2] (dose 1000 g/ha), the “weed control effect (activity level), Rorippa indica” value came to 10. Besides, in assay [3] (dose 1000 g/ha), the “weed control effect (activity level), Chenopodiaceae” value was found to be 10. In addition, in assay [7] (dose 1000 g/ha), the “weed control effect (activity level), Amaranthus retroflexus” value worked out at 10.
`Oc1cc(C(F)(F)F)nnc1-c1cccnc1` [Compound 202]: the inhibition at 300 g/ha was 80 to 90% in assay [1]; 100% in assay [2]; 100% in assay [3]; 100% in assay [4]; 70 to 80% in assay [5]; 100% in assay [6]. Moreover, the “weed control effect (activity level), Veronica polita” value in assay [1] (dose 2000 g/ha) was determined as 10. In addition, the “weed control effect (activity level), Rorippa indica” value in assay [2] (dose 2000 g/ha) is given as 10. Besides, the “weed control effect (activity level), Chenopodiaceae” value in assay [3] (dose 2000 g/ha) turned out to be 10. For the same molecule, the “weed control effect (activity level), Amaranthus retroflexus” value in assay [7] (dose 2000 g/ha) was determined as 10.
On to `Oc1cc(C(F)(F)F)nnc1-c1ccnc(F)c1` [Compound 206], for which the inhibition at 300 g/ha in assay [1], in assay [2], in assay [3], in assay [4], in assay [5] and in assay [6] was 100% in each case. Also, the “weed control effect (activity level), Veronica polita” value in assay [1] (dose 2000 g/ha) was 10. Further, the “weed control effect (activity level), Rorippa indica” value in assay [2] (dose 2000 g/ha) is on record as 10. The “weed control effect (activity level), Chenopodiaceae” value in assay [3] (dose 2000 g/ha) came to 10. Moreover, in assay [7] (dose 2000 g/ha), the “weed control effect (activity level), Amaranthus retroflexus” value amounted to 10.
As to `Oc1cc(C(F)(F)F)nnc1-c1ccc(F)nc1` [Compound 207], the inhibition at 300 g/ha in assay [1], in assay [2], in assay [3], in assay [4], in assay [5] and in assay [6] was 100% each time. Besides, in assay [1] (dose 2000 g/ha), the “weed control effect (activity level), Veronica polita” value was 10. The “weed control effect (activity level), Rorippa indica” value in assay [2] (dose 2000 g/ha) is 10. Moreover, the “weed control effect (activity level), Chenopodiaceae” value in assay [3] (dose 2000 g/ha) is 10. In addition, the “weed control effect (activity level), Amaranthus retroflexus” value in assay [7] (dose 2000 g/ha) came out at 10.
Take `Oc1cc(C(F)(F)F)nnc1-c1ccc(F)nc1F` [Compound 220]: the inhibition at 300 g/ha in assay [1], in assay [2], in assay [3], in assay [4], in assay [5] and in assay [6] was 100% in each case. Further, the “weed control effect (activity level), Veronica polita” value in assay [1] (dose 2000 g/ha) is on record as 10. For the same molecule, the “weed control effect (activity level), Rorippa indica” value in assay [2] (dose 2000 g/ha) came out at 10. Further, the “weed control effect (activity level), Chenopodiaceae” value in assay [3] (dose 2000 g/ha) is on record as 10. Further, the “weed control effect (activity level), Amaranthus retroflexus” value in assay [7] (dose 2000 g/ha) amounted to 10.
As to `Oc1cc(C(F)(F)F)nnc1-c1cccnc1F` [Compound 733], the inhibition at 300 g/ha in assay [1], in assay [2], in assay [3], in assay [4], in assay [5] and in assay [6] was 100% throughout. Also, the “weed control effect (activity level), Veronica polita” value in assay [1] (dose 1000 g/ha) is 10. In addition, in assay [2] (dose 1000 g/ha), the “weed control effect (activity level), Rorippa indica” value turned out to be 10. In assay [3] (dose 1000 g/ha), the “weed control effect (activity level), Chenopodiaceae” value turned out to be 10. Besides, the “weed control effect (activity level), Amaranthus retroflexus” value in assay [7] (dose 1000 g/ha) came to 10.
On to `Oc1cc(C(F)(F)F)nnc1-c1ccc(Cl)cc1` [Compound 739], for which the “weed control effect (activity level), Veronica polita” value in assay [1] (Dose 3000 g/ha) is 10. The inhibition at 300 g/ha in assay [1] is 100%; in assay [2], 100%; in assay [3], 100%; in assay [4], 100%; in assay [5] it was 100%; in assay [6], 80 to 90%. Besides, the “weed control effect (activity level), Rorippa indica” value in assay [2] (Dose 3000 g/ha) was 10. In addition, the “weed control effect (activity level), Chenopodiaceae” value in assay [3] (Dose 3000 g/ha) is listed as 10. In addition, in assay [7] (Dose 3000 g/ha), the “weed control effect (activity level), Amaranthus retroflexus” value is listed as 10.
